Values joined by “and” are separate entries in the source; they are usually repeats but may differ in a detail not shown here. Identical values can stand only once. Toxic doses and inconclusive results are not listed.
Test system: P388 leukemia ip, CD2F1 mice, survival T/C
Experiment: NCI In Vivo Anticancer Drug Screen. Data for tumor model P388 Leukemia (intraperitoneal) in CD2F1 (CDF1) mice
Details: endpoint: median survival time, higher = longer survival
Outline: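 Mice carrying the transplanted tumor received test compound or vehicle. Survival was recorded in each group, and the value is the treated-group measurement divided by that of the vehicle-treated control group.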

[1] = dose: 12.5 mg/kg/injection, schedule: Q01DX009 (ip), vehicle: Klucel (hydroxypropylcellulose) (HPC)
[2] = dose: 25.0 mg/kg/injection, schedule: Q01DX009 (ip), vehicle: Klucel (hydroxypropylcellulose) (HPC)
[3] = dose: 50.0 mg/kg/injection, schedule: Q01DX009 (ip), vehicle: Klucel (hydroxypropylcellulose) (HPC)
[4] = dose: 100.0 mg/kg/injection, schedule: Q01DX009 (ip), vehicle: Klucel (hydroxypropylcellulose) (HPC)
[5] = dose: 3.12 mg/kg/injection, schedule: Q01DX009 (ip), vehicle: saline
[6] = dose: 50.0 mg/kg/injection, schedule: Q01DX005 (ip), vehicle: saline with Tween-80
[7] = dose: 100.0 mg/kg/injection, schedule: Q01DX005 (ip), vehicle: saline with Tween-80
[8] = dose: 200.0 mg/kg/injection, schedule: Q01DX005 (ip), vehicle: saline with Tween-80
[9] = dose: 50.0 mg/kg/injection, schedule: Q01DX005 (ip), vehicle: Klucel (hydroxypropylcellulose) (HPC)
[10] = dose: 100.0 mg/kg/injection, schedule: Q01DX005 (ip), vehicle: Klucel (hydroxypropylcellulose) (HPC)
[11] = dose: 200.0 mg/kg/injection, schedule: Q01DX005 (ip), vehicle: Klucel (hydroxypropylcellulose) (HPC)
[12] = dose: 60.0 mg/kg/injection, schedule: Q01DX005 (ip), vehicle: saline with Tween-80
[13] = dose: 120.0 mg/kg/injection, schedule: Q01DX005 (ip), vehicle: saline with Tween-80
[14] = dose: 240.0 mg/kg/injection, schedule: Q01DX005 (ip), vehicle: saline with Tween-80

Compound: COCC(O)Cn1ccnc1[N+](=O)[O-] (stereo unspecified)
- T/C (dose: 1.0 mg/kg/injection, schedule: Q01DX009 (ip), vehicle: saline + alcohol): 100 % of control
- T/C (dose: 1.0 mg/kg/injection, schedule: Q01DX009 (ip), vehicle: saline): 104 % of control
- T/C (dose: 2.0 mg/kg/injection, schedule: Q01DX009 (ip), vehicle: saline + alcohol): 98 % of control
- T/C (dose: 2.0 mg/kg/injection, schedule: Q01DX009 (ip), vehicle: saline): 109 % of control
- T/C (dose: 4.0 mg/kg/injection, schedule: Q01DX009 (ip), vehicle: saline): 120 % of control
- T/C (dose: 8.0 mg/kg/injection, schedule: Q01DX009 (ip), vehicle: saline): 111 % of control
- T/C (dose: 16.0 mg/kg/injection, schedule: Q01DX009 (ip), vehicle: saline): 108 % of control
- T/C (dose: 32.0 mg/kg/injection, schedule: Q01DX009 (ip), vehicle: saline): 112 % of control
- T/C (dose: 64.0 mg/kg/injection, schedule: Q01DX009 (ip), vehicle: saline + alcohol): 124 % of control
- T/C (dose: 64.0 mg/kg/injection, schedule: Q01DX009 (ip), vehicle: saline): 102 % of control
- T/C (dose: 128.0 mg/kg/injection, schedule: Q01DX009 (ip), vehicle: saline + alcohol): 98 % of control
- T/C (dose: 128.0 mg/kg/injection, schedule: Q01DX009 (ip), vehicle: saline): 111 % of control
- T/C (dose: 250.0 mg/kg/injection, schedule: Q01DX001 (ip), vehicle: saline + alcohol): 97 % of control
- T/C (dose: 256.0 mg/kg/injection, schedule: Q01DX009 (ip), vehicle: saline + alcohol): 91 % of control
- T/C (dose: 256.0 mg/kg/injection, schedule: Q01DX009 (ip), vehicle: saline): 111 % of control
- T/C (dose: 500.0 mg/kg/injection, schedule: Q01DX001 (ip), vehicle: saline + alcohol): 100 % of control
- T/C (dose: 512.0 mg/kg/injection, schedule: Q01DX009 (ip), vehicle: saline): 112 % of control
- T/C (dose: 600.0 mg/kg/injection, schedule: Q01DX005 (ip), vehicle: saline): 114 % of control
- T/C (dose: 1000.0 mg/kg/injection, schedule: Q01DX001 (ip), vehicle: saline + alcohol): 102 % of control
- T/C (dose: 1000.0 mg/kg/injection, schedule: Q01DX005 (ip), vehicle: saline): 105 % of control
- T/C (dose: 2000.0 mg/kg/injection, schedule: Q01DX001 (ip), vehicle: saline + alcohol): 66 % of control

Compound: CC(C)(C)CC(C)(C)c1ccc(OCCOc2ccc(C(=O)NCCNC(=O)c3ccc4ccccc4c3O)cc2N)cc1
- T/C (dose: 6.25 mg/kg/injection, schedule: Q01DX009 (ip), vehicle: Klucel (hydroxypropylcellulose) (HPC)): 102 % of control
- T/C [1]: 114 % of control
- T/C [2]: 102 % of control
- T/C [3]: 98 % of control
- T/C [4]: 102 % of control

Compound: Cc1ccc(C(F)(F)F)cc1N(O)C(C)(C)C
- T/C (dose: 50.0 mg/kg/injection, schedule: Q04DX003 (ip), vehicle: saline with Tween-80): 95 % of control
- T/C (dose: 100.0 mg/kg/injection, schedule: Q04DX003 (ip), vehicle: saline with Tween-80): 101 % of control
- T/C (dose: 200.0 mg/kg/injection, schedule: Q04DX003 (ip), vehicle: saline with Tween-80): 118 % of control

Compound: Nc1cccc(N)n1
- T/C [5]: 102 % of control
- T/C (dose: 6.25 mg/kg/injection, schedule: Q01DX009 (ip), vehicle: saline): 101 % of control (2×) and 103 % of control
- T/C (dose: 12.5 mg/kg/injection, schedule: Q01DX009 (ip), vehicle: saline): 100 % of control and 109 % of control and 114 % of control
- T/C (dose: 25.0 mg/kg/injection, schedule: Q01DX009 (ip), vehicle: saline): 112 % of control and 124 % of control

Compound: COC(=O)C([NH-])c1ccccc1.COC(=O)C([NH-])c1ccccc1.[Cl][Pd][Cl] (stereo unspecified)
- T/C (dose: 100.0 mg/kg/injection, schedule: Q04DX003 (ip), vehicle: saline): 108 % of control
- T/C (dose: 200.0 mg/kg/injection, schedule: Q04DX003 (ip), vehicle: saline): 104 % of control
- T/C (dose: 400.0 mg/kg/injection, schedule: Q04DX003 (ip), vehicle: saline): 103 % of control

Compound: O=C1NC(O)c2cccc(Cl)c2O1 (stereo unspecified)
- T/C [6]: 102 % of control
- T/C [7]: 102 % of control
- T/C [8]: 107 % of control

Compound: O=c1c2ccccc2nc(C(F)(F)F)n1CCc1c[nH]c2ccccc12
- T/C [9]: 93 % of control
- T/C [10]: 92 % of control
- T/C [11]: 98 % of control

Compound: Cc1cccc([NH-])n1.Cc1cccc([NH-])n1.Cc1cccc([NH-])n1.Cc1cccc([NH-])n1.[Cl][Rh][Cl]
- T/C (dose: 6.25 mg/kg/injection, schedule: Q01DX009 (ip), vehicle: DMSO): 101 % of control
- T/C (dose: 12.5 mg/kg/injection, schedule: Q01DX009 (ip), vehicle: DMSO): 99 % of control
- T/C (dose: 25.0 mg/kg/injection, schedule: Q01DX009 (ip), vehicle: DMSO): 101 % of control
- T/C (dose: 50.0 mg/kg/injection, schedule: Q01DX009 (ip), vehicle: saline): 101 % of control

Compound: Cc1cc(C)c2ccc(NN=O)nc2n1
- T/C (dose: 3.12 mg/kg/injection, schedule: Q01DX009 (ip), vehicle: water): 118 % of control
- T/C (dose: 12.5 mg/kg/injection, schedule: Q01DX009 (ip), vehicle: water): 163 % of control
- T/C (dose: 25.0 mg/kg/injection, schedule: Q01DX009 (ip), vehicle: water): 167 % of control and 169 % of control

Compound: O=C1C(C(=Nc2ccc(Br)cc2)c2ccccc2)=C(O)c2ccccc21
- T/C (dose: 25.0 mg/kg/injection, schedule: Q04DX002 (ip), vehicle: saline with Tween-80): 93 % of control
- T/C (dose: 50.0 mg/kg/injection, schedule: Q04DX002 (ip), vehicle: saline with Tween-80): 99 % of control
- T/C (dose: 100.0 mg/kg/injection, schedule: Q04DX002 (ip), vehicle: saline with Tween-80): 92 % of control

Compound: O=C(c1ccccc1)C1(c2ccccc2)CCCCC1
- T/C [12]: 94 % of control
- T/C [13]: 94 % of control
- T/C [14]: 86 % of control

Compound: CN1C(Cl)=NS(=O)(=O)c2ccccc21
- T/C (dose: 30.0 mg/kg/injection, schedule: Q01DX005 (ip), vehicle: saline with Tween-80): 120 % of control
- T/C [12]: 112 % of control and 95 % of control

Compound: CCCCCCCCCCC[N+]1(CC)CCCC1
- T/C (dose: 0.19 mg/kg/injection, schedule: Q01DX009 (ip), vehicle: saline): 103 % of control
- T/C (dose: 0.39 mg/kg/injection, schedule: Q01DX009 (ip), vehicle: saline): 98 % of control and 109 % of control
- T/C (dose: 0.78 mg/kg/injection, schedule: Q01DX009 (ip), vehicle: saline): 98 % of control and 104 % of control and 115 % of control
- T/C (dose: 1.56 mg/kg/injection, schedule: Q01DX009 (ip), vehicle: saline): 99 % of control
- T/C [5]: 111 % of control

Compound: O=c1oc(-c2ccco2)ns1
- T/C [1]: 97 % of control
- T/C [2]: 110 % of control
- T/C [3]: 97 % of control

Compound: O=C(O)c1ccccc1C(=O)c1ccccn1
- T/C [3]: 99 % of control
- T/C [4]: 97 % of control
- T/C (dose: 200.0 mg/kg/injection, schedule: Q01DX009 (ip), vehicle: Klucel (hydroxypropylcellulose) (HPC)): 97 % of control

Compound: COc1ccc2c(CSCCO)cc(=O)oc2c1
- T/C (dose: 50.0 mg/kg/injection, schedule: Q04DX003 (ip), vehicle: suspension in saline): 97 % of control
- T/C (dose: 100.0 mg/kg/injection, schedule: Q04DX003 (ip), vehicle: suspension in saline): 100 % of control
- T/C (dose: 200.0 mg/kg/injection, schedule: Q04DX003 (ip), vehicle: suspension in saline): 98 % of control

Compound: Nc1nc(C2CCCCC2)c(I)c(=O)[nH]1
- T/C [9]: 101 % of control
- T/C [10]: 103 % of control
- T/C [11]: 97 % of control

Compound: C[C@H]1C(=O)OCN1S(=O)(=O)C(C)(C)C
- T/C [12]: 101 % of control
- T/C [13]: 104 % of control
- T/C [14]: 102 % of control

Compound: CCCOc1ccc(C(=O)NCc2cccnc2)cc1C(=O)NCc1cccnc1
- T/C [6]: 100 % of control
- T/C [7]: 99 % of control
- T/C [8]: 100 % of control

Compound: COC(=O)/C=C\C=C(\CBr)C(=O)OC
- T/C (dose: 6.25 mg/kg/injection, schedule: Q01DX009 (ip), vehicle: saline with Tween-80): 91 % of control
- T/C (dose: 6.25 mg/kg/injection, schedule: Q04DX003 (ip), vehicle: saline): 110 % of control
- T/C (dose: 12.5 mg/kg/injection, schedule: Q01DX009 (ip), vehicle: saline with Tween-80): 95 % of control
- T/C (dose: 12.5 mg/kg/injection, schedule: Q04DX003 (ip), vehicle: saline): 110 % of control
- T/C (dose: 25.0 mg/kg/injection, schedule: Q01DX009 (ip), vehicle: saline with Tween-80): 91 % of control
- T/C (dose: 25.0 mg/kg/injection, schedule: Q04DX003 (ip), vehicle: saline): 110 % of control

Reference: PubChem BioAssay AID330 (DTP/NCI, 2004)
